From patent publication US20050020646A1, “Treatment of BPH” (Pfizer Inc., priority 2003, published 2005)

Experiments:
[1] = system: human bladder; conditions: human volunteers, intravesical administration; cited from earlier work
[2] = system: bladder function of wild type (WT) and EP1 knockout (EP1KO) mice; assay: Cystometry in conscious mice under intravesical instillation of PGE2; format: in vivo, mouse; conditions: intravesical instillation of PGE2 (20 μM)
Method: Animals: Age-matched female EP1 knockout (EP1KO) mice (DBA/1LacJ background) (n=13) and DBA/1LacJ wild type (WT) controls (n=12) were used for the studies. The knockout mice originated from Groton Laboratories, Pfizer Research and Development, the wild type from the Jackson Laboratories, USA. Both strains were delivered through Charles River Laboratories, UK. After arrival, the mice were housed for 6 weeks under identical conditions under a 12 hours light/dark photocycle, food and water were provided ad libitum. The experimental protocol was approved by the Animals Ethics Committee, Lund University.
The knockout and WT mice were randomly divided into 3 groups each. One third received bladder outlet obstruction (BOO) as described below, one third received sham surgery. The remaining mice served as unoperated controls.
At day 5 after the obstruction a polyethylene catheter (PE, ID 0.38 mm, OD 0.61 mm) with a small cuff was inserted in the bladder dome and secured with a purse-string suture (7-0 silk). The obstructing ligature remained in place. The catheter was tunneled subcutaneously, led out on the back of the neck, and surgically secured. Control animals received the bladder catheter 2 days prior to cystometry.
Cystometry: Two days after insertion of the catheter (7 days after creation of the obstruction), the cystometric investigation was performed without any anesthesia or restraint. The mice were placed into a metabolic cage (Gazzada, Buguggiatade, Italy). The bladder catheter was connected to a pressure transducer, which in turn was connected to a Grass® 7E Polygraph recorder. The bladder was continuously filled with saline at room temperature by means of a microinjecton pump (CMA 100, Carnegie Medicine, Solna, Sweden), at a filling speed of 25 μl/min.
The amount of voided urine was measured by means of a fluid collector, connected to a force displacement transducer (FT 03 D; Grass instrument Co., MA, USA). After a stabilization period of 60-80 minutes, in which the bladder was continuously filled, reproducible voiding patterns were achieved and recorded over a period of 30 minutes. The following parameters were measured: Micturition interval (time between 2 voids), baseline pressure (lowest pressure between 2 voids), threshold pressure (pressure immediately before micturition was initiated), micturition pressure (maximum voiding pressure), and micturition volume. Residual urine was emptied manually 3 times at the end of the cystometry and measured. Bladder capacity was calculated as the amount of saline infused into the bladder between 2 voids, plus the average amount of residual urine.
The animals were continuously observed in order to distinguish between moving artifacts and non-voiding bladder contractions. The surface of the collecting-funnel under the grid of the metabolic cage was sprayed with a thin layer of silicone.
Drugs and solutions: PGE2 (Sigma Chemical Company, St. Louis, Mo., USA). PGE2 was dissolved in ethanol, and the stock solution was stored at a concentration of 10^−2 M at −70°. The final dilution of 20 μM was made in NaCl at the day of cystometry. (Normal Krebs solution was composed as following (mM): NaCl 119, KCl 4.6, CaCl2 1.5, MgCl2 1.2, NaHCO3 15, NaH2PO4 1.2, and glucose 11).
Data analysis: All values are reported as the mean±SEM. Statistical significance was determined by Student's t-test and Bonferroni correction as appropriate. P<0.05 was required for statistical significance.

[3] = system: rat bladder; conditions: rats, topical administration; cited from earlier work
[4] = system: rat spinal cord injury model of overactive bladder; conditions: cited from earlier work
[5] = system: bladder of normal rats; conditions: cited from earlier work

In the case of `CCCCC[C@H](O)/C=C/[C@H]1[C@H](O)CC(=O)[C@@H]1C/C=C\CCCC(=O)O` [PGE2, prostaglandin E2], the bladder capacity [1] is listed as “decreased bladder capacity”, the sensations of urgency [1] is listed as “gave rise to sensations of urgency” and the bladder capacity ([2]; EP1 KO control mice) is listed as “no effect”. The “induction of non-voiding contractions” value ([2]; EP1 KO control mice) was “no induction of non-voiding contractions”, the micturition interval ([2]; EP1 KO control mice) was “no effect” and the micturition volume ([2]; EP1 KO control mice) was “no effect”. For the same molecule, the bladder capacity ([2]; WT control mice) was “decreased”, the micturition interval ([2]; WT control mice) was “decreased” and the micturition volume ([2]; WT control mice) was “decreased”. For the same molecule, the non-voiding contractions ([2]; WT control mice) was “Frequent non-voiding contractions of high amplitude occurred” and the “bladder activity and reflex micturition” value [3] was “bladder hyperactivity and stimulation of reflex micturition”.

In the case of `Cc1cc(Cl)ccc1S(=O)(=O)NC[C@H]1C2CCC(CC2)[C@@H]1/C=C\CCCC(=O)O` [ONO-8711], the bladder overactivity [4] is listed as “reduction in bladder overactivity”.

In the case of `CC(=O)NNC(=O)N1Cc2ccccc2Oc2ccc(Cl)cc21` [SC-19220], the bladder capacity [5] is given as “increased bladder capacity”.
